The values below come from PMC10413920, “Design, synthesis and in vitro biological studies of novel triazoles with potent and broad-spectrum antifungal activity” (Journal of Enzyme Inhibition and Medicinal Chemistry, 2023).

≈ marks a conversion by molar mass, not a printed value. Bounds are passed on as bounds.

One may read the MIC as the lowest concentration that inhibits growth of the organism.

Series [1] has as its system Aspergillus fumigatus 7544. Kind of series: Broth microdilution MIC (CLSI M27-A3/M60). Type of series: cell-based. To be noted: MIC80 (≥80% growth inhibition), 30 °C, 48 h. On the procedure:
(§1) According to the Clinical Laboratory Standards Institute (CLSI, M27-A3 and M60) protocols[10]^,[11], the target compounds were evaluated for their in vitro antifungal activity by the broth microdilution method. The fungi strains used in this study were obtained from the American Type Culture Collection (ATCC) and Changhai Hospital (Shanghai, China). […] Fluconazole (FCZ) and ketoconazole (KCZ) were used as positive controls.
(§2) All fungal strains used in this study were obtained from the American Type Culture Collection (ATCC) and Changhai Hospital (Shanghai, China). All strains were cultivated by shaking (200 rpm) at 30 °C in YEPD medium (1% yeast extract, 2% peptone, and 2% dextrose) to an exponential growth stage.
(§3) Fungal cells at the exponential growth stage were collected and resuspended in RPMI 1640 medium, then diluted to 1 × 10^3 cells/mL. The suspension of fungal cells was inoculated into 96-well plates. Antifungal compounds were serially added and diluted in a 2-fold series to a final concentration range of 64.0–0.125 µg/mL. RPMI 1640 medium with no fungal cells served as a blank control. The fungal suspensions containing DMSO and FCZ served as the negative control and the positive control, respectively. C. albicans, C. glabrata, C. parapsilosis, C. tropicalis, and C. auris cells were incubated at 30 °C for 24 h, C. neoformans and A. fumigatus cells were incubated at 30 °C for 48 h. The optical density (OD630) at 630 nm was measured by a spectrophotometer, which was used to calculate the MIC80 values of each compound.
Background: Broth dilution looks for growth in wells or tubes with falling amounts of substance.

The next series concerns Candida albicans SC5314. The series can be described thus: Broth microdilution MIC (CLSI M27-A3/M60). To be noted: Candida albicans, SC5314; MIC80 (≥80% growth inhibition), 30 °C, 24 h; read-out: MIC, C. alb SC5314. Type of series: cell-based. On the procedure:
as §1, §2, §3

For another series, the system named is Candida glabrata 537. The series can be described thus: Broth microdilution MIC (CLSI M27-A3/M60). It is filed as cell-based. To be noted: Nakaseomyces glabratus, 537; MIC80 (≥80% growth inhibition), 30 °C, 24 h; read-out: MIC, C. gla 537. As to the method: as §1, §2, §3
For series [2], the system named is Candida parapsilosis 22-20. The series can be described thus: Broth microdilution MIC (CLSI M27-A3/M60). The note with it: Lodderomyces parapsilosis, 2220; MIC80 (≥80% growth inhibition), 30 °C, 24 h; read-out: MIC, C. par 22-20. Type of series: cell-based. As to the method: as §1, §2, §3
For a further series, the system named is Candida tropicalis 8915. The series can be described thus: Broth microdilution MIC (CLSI M27-A3/M60). It is filed as cell-based. The note with it: MIC80 (≥80% growth inhibition), 30 °C, 24 h. As to the method: as §1, §2, §3
Series [3] deals with Cryptococcus neoformans 22-21. The series can be described thus: Broth microdilution MIC (CLSI M27-A3/M60). The note with it: 2221, MIC80 (≥80% growth inhibition), 30 °C, 48 h, read-out: MIC, C. neo 22-21. It is filed as cell-based. As to the method:
as §1, §2, §3

Series [4] has as its system FCZ-resistant C. albicans 901. Kind of series: MIC against FCZ-resistant strains, microdilution. It is filed as cell-based, Candida albicans. To be noted: Candida albicans; FCZ-resistant isolate, 30 °C, 24 h; read-out: MIC, C.alb 901.
Source text: (§4) The alarming impact of drug resistance amongst Candida spp. is an emerging problem globally. Rising rates of azole-resistant Candida spp. are associated with an increase in treatment failures. Candida auris is characterised by a high level of multi-drug resistance. It has been reported in more than 45 countries and has caused serious hospital outbreaks with crude mortality rates as high as 72%[13]^,[14].
as §2
as §3, with “The fungal suspensions containing DMSO and FCZ served as the negative control and the positive control, respectively.” left out

The subject of the next series is C. auris 918. Kind of series: MIC against FCZ-resistant strains, microdilution. It is filed as cell-based, Candida auris. To be noted: Candidozyma auris, FCZ-resistant isolate, 30 °C, 24 h.
Source text: as §4, §2
as §3, with “The fungal suspensions containing DMSO and FCZ served as the negative control and the positive control, respectively.” left out

The next series concerns C. auris 919. Kind of series: MIC against FCZ-resistant strains, microdilution. To be noted: Candidozyma auris, FCZ-resistant isolate, 30 °C, 24 h. It is filed as cell-based, Candida auris.
Source text: as §4, §2
as §3, with “The fungal suspensions containing DMSO and FCZ served as the negative control and the positive control, respectively.” left out

A further series concerns C. albicans SC5314. Kind of series: GC-MS analysis of sterol composition. Type of series: cell-based, Candida albicans. The note with it: 8 µg/mL, 8 h, control 89.85%. As to the method: As the major fungal sterol, ergosterol accounted for 89.85% of the total sterols in the control group, zymosterol accounted for 8.80%, in addition to several other sterols. […] In contrast, the content of other sterols in the bypass pathway increased.
Overnight cultured C. albicans SC5314 fungal cells were collected and diluted to 5 × 10^6 cells/mL in YEPD medium. […] The fungal cells were cultured by shaking (200 rpm) at 30 °C. After incubation for 8 h, the fungal suspension was centrifuged (3000 rpm, 1 min), harvested and washed twice with distilled water carefully. The saponifying agent (6 ml of 15% NaOH resolved in 90% ethanol) was added to the precipitate. After 1 h of saponification at 80 °C, sterols were extracted with hexane (3 × 5 ml). The combined extracts were evaporated in a water bath and washed once with water. The residue was dried in a 60 °C water bath to obtain the total sterols. Finally, the total sterol was analysed by GC-MS and the structures of each sterol content were identified and compared with the National Institute of Standards and Technology (NIST) database.

A short description of a further series: in vitro. The note with it: rabbit.

Regarding `OC(Cn1cncn1)(Cn1cncn1)c1ccc(F)cc1F` [FCZ, fluconazole, reference compound], the MIC in series [1] (Aspergillus fumigatus, 7544, read-out: MIC, A. fum 7544) was over 64 µg/mL; with Candida albicans SC5314, 0.5 µg/mL (≈ 1.63 µM); with Candida glabrata 537, 1 µg/mL (≈ 3.27 µM); in [2], 4 µg/mL (≈ 13.1 µM); in the series with Candida tropicalis 8915 (Candida tropicalis, 8915, read-out: MIC, C. tro 8915) it was over 64 µg/mL; in series [3], 1 µg/mL (≈ 3.27 µM). For the same molecule, the MIC (in series [4]; against C. auris 918; in the series on C. auris 919) was over 256 µg/mL in each case. Also, in series [1], the “MIC, A. fum 7544” value was over 64.0 µg/mL. Moreover, the “MIC, C. tro 8915” value against Candida tropicalis 8915 was over 64.0 µg/mL. Moreover, the “ergosterol content of the fungal cells (of total sterols)” value with C. albicans SC5314 is 6.08%. Further, the hemolysis at 1 h, 16 µg/mL in “in vitro” was found to be 1.3%.
